The subject of data set [1] is differentiated SH-SY5Y cells. The data set is described as follows: Intracellular total glutathione (DTNB-GSH recycling assay). The class given is cell-based. Conditions: 24 h. The protocol:
Total GSH was quantified through the DTNB-GSH recycling assay. Briefly, GSH is oxidized by 5,5′-dithiobis (2-nitrobenzoic acid) (DTNB) producing 5-thio-2-nitrobenzoic acid (TNB) and a glutathione adduct of GSH (GS-TNB). In the presence of NADPH, GS-TNB is reduced by glutathione reductase to 2GSH (recycled). The GSH concentration in the samples is thus proportional to TNB formation, which is measurable at 415 nm.
Intracellular total glutathione (GSH) was measured through the DTNB-GSH recycling assay. […]
The acidic samples and standards (GSH standards prepared in 5% HClO4) were neutralized with ice-cold 0.76 M KHCO3 (1:1) and centrifuged (13,000× g, 10 min at 4 °C). Subsequently, 100 µL of the supernatants were transferred to a 96-well plate, followed by the addition of 65 µL of an extemporaneous reagent solution (3.96 mM DTNB and 0.68 mM NADPH prepared in a 7.5 pH phosphate buffer: 71.5 mM Na2HPO4, 71.5 mM NaH2PO4, and 0.63 mM EDTA) and the plates were incubated for 15 min in a multi-well plate reader (PowerWaveX BioTek Instruments, Winooski, VT, USA) at 30 °C. At the end of the incubation period, 40 µL of a 10 U/mL glutathione reductase (prepared in phosphate buffer) solution was added and the absorbance was then measured, for 3 min, at 415 nm, in kinetic mode to follow the TNB formation. […]

Data set [2] deals with differentiated SH-SY5Y cells. The data set is described as follows: Mitochondrial membrane potential (JC-1 dye). The note with it: 24 h, 0–500 µM, vs control. The class given is cell-based. As for the experimental part: Mitochondrial transmembrane potential (Δѱm) was determined using the JC-1 dye, which can selectively enter the mitochondria and reversibly change the dye’s fluorescent properties depending on the Δѱm. At high Δѱm conditions—representative of healthy cells—JC-1 forms J-aggregates generating red fluorescence. At low Δѱm conditions—representative of unhealthy or apoptotic cells—JC-1 is predominantly a monomer generating green fluorescence.
The mitochondrial membrane potential was evaluated by using the JC-1 probe. SH-SY5Y cells were seeded and differentiated in 48-well plates and, 6 days after seeding, the cells were exposed to the six drugs (0–500 µM) for 24 h, at 37 °C, in a 5% CO2–95% air atmosphere. Subsequently, the medium was removed, and the cells were incubated with 20 µM JC-1 for 30 min, protected from light, at 37 °C, in a 5% CO2–95% air atmosphere. At the end of the incubation period, the cells were centrifuged (300× g, 5 min at room temperature) and washed (warm HBSS with calcium and magnesium) twice. The fluorescence was then measured in a multi-well plate reader: at 535 nm excitation and 595 nm emission wavelengths for J-aggregates; and at 485 nm excitation and 535 nm emission wavelengths for JC-1 monomers (PowerWaveX BioTek Instruments, USA). […] The results were calculated as red/green fluorescence intensity ratios and expressed as percentages of control cells. […]

Data on two molecules can be found in publication PMC10458253, “Unraveling the In Vitro Toxicity Profile of Psychedelic 2C Phenethylamines and Their N-Benzylphenethylamine (NBOMe) Analogues” (Pharmaceuticals, 2023).

SMILES strings stand for the structures.

Turning to `COc1cc(CCN)c(OC)cc1Br` [2C-B, 4-Bromo-2,5-dimethoxy-β-phenethylamine], the “total GSH intracellular levels” value in data set [1] (250 μM) is given as “no significant alterations”.
With `COc1cc(CCNCc2ccccc2OC)c(OC)cc1Br` [25B-NBOMe, 4-Bromo-2,5-dimethoxy-N-(2-methoxybenzyl)-β-phenethylamine], the “total GSH intracellular levels” value in data set [1] (10 μM) is “drastically reduced the total GSH levels”. Further, the “JC-1 red/green ratio (mitochondrial membrane potential)” value in data set [2] was “the most operative drug in inducing mitochondrial membrane depolarization”.
